Experiments:
Settings in all cases: 48 h
NOMO1 [1] = assay: cell viability relative to DMSO control; higher = less cytotoxic
Procedure, shortened: (§1)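 In 1536-well plates, 5 μl of leukemia cells were seeded per well: 500 cells/well for NOMO1 or SEM and 1000 cells/well for P12-Ichikawa. Each line had first been adapted for at least four passages in each medium. Library compounds in DMSO were pin-dosed at 11 threefold concentrations between 47 μM and 0.79 nM, and CellTiter-Glo One luminescence was read after 48 h at 37°C. Viability is a per-plate percentage relative to DMSO wells, with cell-free wells as background.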

P12-Ichikawa [2] = assay: as above
Procedure, shortened: as §1

SEM cells [3] = assay: as above
Procedure, shortened: as §1

NOMO1 [4] = assay: AUC of viability dose-response curve (% viability x log10 dose units); higher = less sensitive
Procedure, shortened: (§2)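 Medium-adapted leukemia cells in 1536-well plates, at 500 or 1000 cells/well, were incubated for 48 h at 37°C with library compounds in DMSO at 11 threefold doses from 47 μM to 0.79 nM. CellTiter-Glo One luminescence normalised per plate to DMSO and cell-free wells was fitted with a four-parameter log-logistic model over log10 doses. Area under the curve was integrated from this fit by trapezoidal rule, with curves beyond full viability scaled and failed quality-control curves removed.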

P12-Ichikawa [5] = assay: as above
Procedure, shortened: as §2

SEM cells [6] = assay: as above
Procedure, shortened: as §2

C[C@](N)(Cc1ccc(O)c(O)c1)C(=O)O
cell viability [%]
Settings	NOMO1 [1]	P12-Ichikawa [2]	SEM cells [3]
HPLM + 10% dialyzed FBS, 0.000781 µM	84.9	95.1	83.9
HPLM + 10% dialyzed FBS, 0.00234 µM	84.3	90.6	85.7
HPLM + 10% dialyzed FBS, 0.00702 µM	96.8	91.4	94.4
HPLM + 10% dialyzed FBS, 0.0211 µM	74.9	96.8	86.3
HPLM + 10% dialyzed FBS, 0.0632 µM	89.4	102	102
HPLM + 10% dialyzed FBS, 0.19 µM	82	87.7	92.5
HPLM + 10% dialyzed FBS, 0.569 µM	76.7	77	84.1
HPLM + 10% dialyzed FBS, 1.71 µM	69.9	90.4	81.7
HPLM + 10% dialyzed FBS, 5.12 µM	92.9	87.8	83
HPLM + 10% dialyzed FBS, 15.4 µM	76.8	81.2	74.8
HPLM + 10% dialyzed FBS, 46.1 µM	72.6	84.8	6.26
RPMI 5 mM glucose + 10% FBS, 0.000781 µM	86.4	90.8	94.7
RPMI 5 mM glucose + 10% FBS, 0.00234 µM	80.1	93.3	106
RPMI 5 mM glucose + 10% FBS, 0.00702 µM	93.9	87.2	100
RPMI 5 mM glucose + 10% FBS, 0.0211 µM	82	89.3	111
RPMI 5 mM glucose + 10% FBS, 0.0632 µM	81.7	93.3	103
RPMI 5 mM glucose + 10% FBS, 0.19 µM	81	92.9	81.6
RPMI 5 mM glucose + 10% FBS, 0.569 µM	76.5	83.2	69.2
RPMI 5 mM glucose + 10% FBS, 1.71 µM	78.4	81.1	93.5
RPMI 5 mM glucose + 10% FBS, 5.12 µM	82.9	81	86.2
RPMI 5 mM glucose + 10% FBS, 15.4 µM	76.9	80.8	72.9
RPMI 5 mM glucose + 10% FBS, 46.1 µM	74.1	84.9	3.7
RPMI 5 mM glucose + 10% dialyzed FBS, 0.000781 µM	88.3	85.1	103
RPMI 5 mM glucose + 10% dialyzed FBS, 0.00234 µM	88.5	85.1	93.7
RPMI 5 mM glucose + 10% dialyzed FBS, 0.00702 µM	85	83.5	95.9
RPMI 5 mM glucose + 10% dialyzed FBS, 0.0211 µM	87.1	88.2	111
RPMI 5 mM glucose + 10% dialyzed FBS, 0.0632 µM	92.2	89.3	97.8
RPMI 5 mM glucose + 10% dialyzed FBS, 0.19 µM	85.7	82.1	91.1
RPMI 5 mM glucose + 10% dialyzed FBS, 0.569 µM	78.1	82.5	98.5
RPMI 5 mM glucose + 10% dialyzed FBS, 1.71 µM	87.2	81.8	96.1
RPMI 5 mM glucose + 10% dialyzed FBS, 5.12 µM	82.3	76.1	88.2
RPMI 5 mM glucose + 10% dialyzed FBS, 15.4 µM	79	81.8	77.4
RPMI 5 mM glucose + 10% dialyzed FBS, 46.1 µM	77.9	81.4	4.47

AUC of viability dose-response curve
Settings	NOMO1 [4]	P12-Ichikawa [5]	SEM cells [6]
HPLM + 10% dialyzed FBS	391	427	395
RPMI 5 mM glucose + 10% FBS	387	416	417
RPMI 5 mM glucose + 10% dialyzed FBS	405	398	432

Cc1cccc(/C=N/Nc2cc(N3CCOCC3)nc(OCCc3ccccn3)n2)c1
cell viability [%]
Settings	NOMO1 [1]	P12-Ichikawa [2]	SEM cells [3]
HPLM + 10% dialyzed FBS, 0.000781 µM	101	95.8	99.3
HPLM + 10% dialyzed FBS, 0.00234 µM	106	102	93.8
HPLM + 10% dialyzed FBS, 0.00702 µM	111	92	102
HPLM + 10% dialyzed FBS, 0.0211 µM	107	104	100
HPLM + 10% dialyzed FBS, 0.0632 µM	90.2	103	111
HPLM + 10% dialyzed FBS, 0.19 µM	97.9	96.7	87
HPLM + 10% dialyzed FBS, 0.569 µM	94.5	89.5	104
HPLM + 10% dialyzed FBS, 1.71 µM	77.5	79	72.8
HPLM + 10% dialyzed FBS, 5.12 µM	41.5	67.6	82.7
HPLM + 10% dialyzed FBS, 15.4 µM	34.4	42	52.9
HPLM + 10% dialyzed FBS, 46.1 µM	24.3	28.4	31.8
RPMI 5 mM glucose + 10% FBS, 0.000781 µM	98.8	92	97.8
RPMI 5 mM glucose + 10% FBS, 0.00234 µM	107	97.5	98.9
RPMI 5 mM glucose + 10% FBS, 0.00702 µM	97.9	92.7	106
RPMI 5 mM glucose + 10% FBS, 0.0211 µM	99.5	99	109
RPMI 5 mM glucose + 10% FBS, 0.0632 µM	87.6	100	105
RPMI 5 mM glucose + 10% FBS, 0.19 µM	97	96.8	96.1
RPMI 5 mM glucose + 10% FBS, 0.569 µM	77.2	79.5	95.4
RPMI 5 mM glucose + 10% FBS, 1.71 µM	68.2	64.3	85.9
RPMI 5 mM glucose + 10% FBS, 5.12 µM	19.3	53.2	66.9
RPMI 5 mM glucose + 10% FBS, 15.4 µM	22.6	45	34.9
RPMI 5 mM glucose + 10% FBS, 46.1 µM	21.4	26.4	13.4
RPMI 5 mM glucose + 10% dialyzed FBS, 0.000781 µM	99.8	90	104
RPMI 5 mM glucose + 10% dialyzed FBS, 0.00234 µM	93	89.4	100
RPMI 5 mM glucose + 10% dialyzed FBS, 0.00702 µM	90.9	88.5	101
RPMI 5 mM glucose + 10% dialyzed FBS, 0.0211 µM	98.6	89.5	96.8
RPMI 5 mM glucose + 10% dialyzed FBS, 0.0632 µM	95.4	89.8	90.3
RPMI 5 mM glucose + 10% dialyzed FBS, 0.19 µM	85.8	80.6	81.3
RPMI 5 mM glucose + 10% dialyzed FBS, 0.569 µM	75.9	71.5	70.8
RPMI 5 mM glucose + 10% dialyzed FBS, 1.71 µM	38.7	60.7	73.8
RPMI 5 mM glucose + 10% dialyzed FBS, 5.12 µM	15.1	52.3	54.9
RPMI 5 mM glucose + 10% dialyzed FBS, 15.4 µM	18.8	40	35.3
RPMI 5 mM glucose + 10% dialyzed FBS, 46.1 µM	17.5	24.9	7.57

AUC of viability dose-response curve
Settings	NOMO1 [4]	P12-Ichikawa [5]	SEM cells [6]
HPLM + 10% dialyzed FBS	382	399	415
RPMI 5 mM glucose + 10% FBS	352	373	396
RPMI 5 mM glucose + 10% dialyzed FBS	322	343	358

O=[S+]([O-])(c1cccc2cnccc12)N1CCCNCC1
cell viability [%]
Settings	HPLM + 10% dialyzed FBS	RPMI 5 mM glucose + 10% FBS	RPMI 5 mM glucose + 10% dialyzed FBS
NOMO1 [1], 0.000781 µM	98.7	–	–
NOMO1 [1], 0.00234 µM	124	–	–
NOMO1 [1], 0.00702 µM	136	–	–
NOMO1 [1], 0.0211 µM	136	–	–
NOMO1 [1], 0.0632 µM	132	–	–
NOMO1 [1], 0.19 µM	147	–	–
NOMO1 [1], 0.569 µM	139	–	–
NOMO1 [1], 1.71 µM	136	–	–
NOMO1 [1], 5.12 µM	130	–	–
NOMO1 [1], 15.4 µM	116	–	–
NOMO1 [1], 46.1 µM	51	–	–
SEM cells [3], 0.000781 µM	103	123	110
SEM cells [3], 0.00234 µM	104	115	108
SEM cells [3], 0.00702 µM	121	130	123
SEM cells [3], 0.0211 µM	120	121	135
SEM cells [3], 0.0632 µM	121	151	145
SEM cells [3], 0.19 µM	127	146	136
SEM cells [3], 0.569 µM	138	133	138
SEM cells [3], 1.71 µM	113	143	172
SEM cells [3], 5.12 µM	117	139	145
SEM cells [3], 15.4 µM	127	148	146
SEM cells [3], 46.1 µM	115	54.9	93.3

AUC of viability dose-response curve
Settings	NOMO1 [4]	P12-Ichikawa [5]	SEM cells [6]
HPLM + 10% dialyzed FBS	457	456	452
RPMI 5 mM glucose + 10% FBS	471	476	463
RPMI 5 mM glucose + 10% dialyzed FBS	465	467	447
